Where “and” joins values, the source holds several entries; their conditions need not be identical. Equal entries are not always repeated.
How the values were obtained:
[1] = Freeze-thaw stability in spiked pooled human plasma; type: physicochemical
[2] = Autosampler stability of ready for injection samples; type: physicochemical, human
[3] = Long-term stability in spiked pooled human plasma
[4] = Short-term stability in spiked pooled human plasma (bench-top, 4 °C, 56 °C)
[5] = Plasma concentrations in patients on oral antitumor therapy (LC-MS); type: in vivo, human
Source text: The liquid chromatography-mass spectrometer system consisted of a Thermo Scientific Dionex UltiMate^TM 3000 with an integrated and temperature controlled autosampler (Thermo Fisher Scientific, Dreieich, Germany). An Acquity UPLC® BEH C18 column (2.1 × 100 mm, 1.7 µm; Waters, Milford, CT, USA) equipped with an Acquity UPLC® BEH C18 VanGuard^TM Pre-Column (2.1 × 5 mm, 1.7 µm; Waters, Milford, CT, USA) was used for chromatographic separation. The Q-Exactive^TM Focus mass spectrometer (MS) was hyphenated with a heated electrospray ionization (HESI) source (both from Thermo Fisher Scientific, Dreieich, Germany).
Chromatographic separation was achieved using a gradient elution with water containing 0.5% (v/v) FA (eluent A) and MeOH with 0.1% (v/v) FA (eluent B). The injection volume was 5 µL. The gradient program is shown in Supplement Table S2. The flow rate was 0.5 mL/min with a total run time of 15 min. The column heater was maintained at 50 °C and the autosampler temperature was 4 °C.
The following MS and HESI settings were maintained for all analyses: Sheath gas, auxiliary gas, and sweep gas flow rates were set to 60, 20, and 0, respectively. The spray voltage was 4000 V. Both capillary and auxiliary gas heater temperatures were set to 400 °C. High-purity nitrogen gas was used for the HESI source gases and for the bath gas of the C-trap. […] The HESI source was configured in positive mode for ionization.
The stock solutions were stored in glass vials at −80 °C. Aliquots of all stock solutions were combined in ACN (volumes of individual stock solution solvents are negligible) to obtain a standard solution of all analytes with an individual concentration of 200% of the respective trough level (cmin). Eight individual working standards were prepared by stepwise dilution of this standard solution with concentrations from 10 to 200% cmin (shown in Supplement Table S3). Furthermore, the four individual IS stock solutions were combined and diluted to 50 ng/mL with ACN. Calibration and validation standards were prepared by spiking 50 µL pooled human plasma with 10 µL of the respective working solution. Next, 250 µL IS solution (50 ng/mL in ACN) were added and vortexed vigorously. […] Then, 100 µL supernatant were transferred to 300 µL HPLC insert glass vials and diluted with 100 µL eluent (90% A/10% B). For blank samples, 50 µL pooled human plasma were combined with 10 µL ACN (instead of working solution) and prepared as described above. The calibration and validation standards were freshly prepared before every run. Patient plasma samples were prepared as calibration and validation standards (no additional processing step necessary), except for adding 10 µL ACN instead of 10 µL working standard. Before sample preparation, the frozen plasma samples were thawed in absence of light at 4 °C.
Blood samples were collected over the entire dosing interval from patients treated with an oral anticancer drug as listed in Supplement Table S4. […] A maximum of two samples at two different time points throughout the entire dosing interval were collected per patient. Treatment duration before collection was at least five half-lives (depending on the specific oral anticancer drug). The samples were collected in K3-EDTA tubes.
A total of 71 blood samples from 39 patients treated with 14 different oral anticancer drugs were collected (see Supplement Table S4 for details). All patients were recruited from independent outpatient clinics associated with the Comprehensive Cancer Center of the University Hospital Erlangen (CCC Erlangen-EMN). Of 71 blood samples, 41 were taken ±4 h of trough level (cmin).

[6] = design: method as in supplement references [1-55] as printed per drug; conditions: minimum steady-state blood plasma concentration after multiple dose administration; ref supplement references [1-55] per drug; cited from earlier work

O=C(c1cc(Cc2n[nH]c(=O)c3ccccc23)ccc1F)N1CCN(C(=O)C2CC2)CC1 [Olaparib]
Freeze-Thaw Accuracy [%] ([1]; validation standard 2xLLOV): 99.5%
Freeze-Thaw Accuracy [%] ([1]; validation standard LLOV): 113.4%
Freeze-Thaw Accuracy [%] ([1]; validation standard MOV): 96.6%
Freeze-Thaw Accuracy [%] ([1]; validation standard ULOV): 100.5%
Autosampler (24h, 4°C) Accuracy [%] ([2]; validation standard 2xLLOV): 103.8%
Autosampler (72h, 4°C) Accuracy [%] ([2]; validation standard 2xLLOV): 100.5%
Autosampler (24h, 4°C) Accuracy [%] ([2]; validation standard LLOV): 111.6%
Autosampler (72h, 4°C) Accuracy [%] ([2]; validation standard LLOV): 111.2%
Autosampler (24h, 4°C) Accuracy [%] ([2]; validation standard MOV): 100.5%
Autosampler (72h, 4°C) Accuracy [%] ([2]; validation standard MOV): 98.0%
Autosampler (24h, 4°C) Accuracy [%] ([2]; validation standard ULOV): 103.8%
Autosampler (72h, 4°C) Accuracy [%] ([2]; validation standard ULOV): 100.5%
Long-term stability, 1 month, -20°C Accuracy [%] ([3]; validation standard 2xLLOV): 100.3%
Long-term stability, 1 month, -80°C Accuracy [%] ([3]; validation standard 2xLLOV): 98.2%
Long-term stability, 2 month, -20°C Accuracy [%] ([3]; validation standard 2xLLOV): 103.8%
Long-term stability, 2 month, -80°C Accuracy [%] ([3]; validation standard 2xLLOV): 103.3%
Long-term stability, 3 month, -20°C Accuracy [%] ([3]; validation standard 2xLLOV): 99.8%
Long-term stability, 3 month, -80°C Accuracy [%] ([3]; validation standard 2xLLOV): 103.3%
Long-term stability, 6 weeks, 4°C, without daylight Accuracy [%] ([3]; validation standard 2xLLOV): 96.6%
Long-term stability, 1 month, -20°C Accuracy [%] ([3]; validation standard LLOV): 112.8%
Long-term stability, 1 month, -80°C Accuracy [%] ([3]; validation standard LLOV): 110.5%
Long-term stability, 2 month, -20°C Accuracy [%] ([3]; validation standard LLOV): 115.9%
Long-term stability, 2 month, -80°C Accuracy [%] ([3]; validation standard LLOV): 115.8%
Long-term stability, 3 month, -20°C Accuracy [%] ([3]; validation standard LLOV): 111.4%
Long-term stability, 3 month, -80°C Accuracy [%] ([3]; validation standard LLOV): 115.4%
Long-term stability, 6 weeks, 4°C, without daylight Accuracy [%] ([3]; validation standard LLOV): 105.6%
Long-term stability, 1 month, -20°C Accuracy [%] ([3]; validation standard MOV): 95.3%
Long-term stability, 1 month, -80°C Accuracy [%] ([3]; validation standard MOV): 92.9%
Long-term stability, 2 month, -20°C Accuracy [%] ([3]; validation standard MOV): 97.5%
Long-term stability, 2 month, -80°C Accuracy [%] ([3]; validation standard MOV): 96.8%
Long-term stability, 3 month, -20°C Accuracy [%] ([3]; validation standard MOV): 97.6%
Long-term stability, 3 month, -80°C Accuracy [%] ([3]; validation standard MOV): 96.7%
Long-term stability, 6 weeks, 4°C, without daylight Accuracy [%] ([3]; validation standard MOV): 107.5%
Long-term stability, 1 month, -20°C Accuracy [%] ([3]; validation standard ULOV): 99.1%
Long-term stability, 1 month, -80°C Accuracy [%] ([3]; validation standard ULOV): 98.1%
Long-term stability, 2 month, -20°C Accuracy [%] ([3]; validation standard ULOV): 102.1%
Long-term stability, 2 month, -80°C Accuracy [%] ([3]; validation standard ULOV): 101.1%
Long-term stability, 3 month, -20°C Accuracy [%] ([3]; validation standard ULOV): 98.9%
Long-term stability, 3 month, -80°C Accuracy [%] ([3]; validation standard ULOV): 100.7%
Long-term stability, 6 weeks, 4°C, without daylight Accuracy [%] ([3]; validation standard ULOV): 105.6%
Short-time stability (1h, 56°C) Accuracy [%] ([4]; validation standard 2xLLOV): 64.1%
Short-time stability (24h, 4°C, without daylight) Accuracy [%] ([4]; validation standard 2xLLOV): 101.8%
Short-time stability (24h, RT, with daylight) Accuracy [%] ([4]; validation standard 2xLLOV): 91.3%
Short-time stability (24h, RT, without daylight) Accuracy [%] ([4]; validation standard 2xLLOV): 90.8%
Short-time stability (1h, 56°C) Accuracy [%] ([4]; validation standard LLOV): 80.6%
Short-time stability (24h, 4°C, without daylight) Accuracy [%] ([4]; validation standard LLOV): 110.7%
Short-time stability (24h, RT, with daylight) Accuracy [%] ([4]; validation standard LLOV): 108.3%
Short-time stability (24h, RT, without daylight) Accuracy [%] ([4]; validation standard LLOV): 110.6%
Short-time stability (1h, 56°C) Accuracy [%] ([4]; validation standard MOV): 49.4%
Short-time stability (24h, 4°C, without daylight) Accuracy [%] ([4]; validation standard MOV): 98.6%
Short-time stability (24h, RT, with daylight) Accuracy [%] ([4]; validation standard MOV): 89.4%
Short-time stability (24h, RT, without daylight) Accuracy [%] ([4]; validation standard MOV): 88.9%
Short-time stability (1h, 56°C) Accuracy [%] ([4]; validation standard ULOV): 42.9%
Short-time stability (24h, 4°C, without daylight) Accuracy [%] ([4]; validation standard ULOV): 99.7%
Short-time stability (24h, RT, with daylight) Accuracy [%] ([4]; validation standard ULOV): 99.0%
Short-time stability (24h, RT, without daylight) Accuracy [%] ([4]; validation standard ULOV): 94.2%
Measured plasma concentration ([5]; 600 mg/day, 12 h, ±4 h of trough level: no): 4442.9 ng/mL and 5552.4 ng/mL and 6053.6 ng/mL
Interpatient Coefficient of Variation [%] ([5]; patient plasma concentrations): 51.6%
Median Concentration of All Samples [% of r.c.] ([5]; patient plasma, all samples, r.c. = respective cmin): 287.6 % of r.c.
cmin [6]: 1570 ng/mL

Source: paper PMC8699473, “An Easily Expandable Multi-Drug LC-MS Assay for the Simultaneous Quantification of 57 Oral Antitumor Drugs in Human Plasma” (Cancers, 2021)
